Measurements reported in PMC10648349, “Aromatic Diboronic Acids as Effective KPC/AmpC Inhibitors” (Molecules, 2023).
Converted amounts (≈) assume the structure as drawn.

Columns and labels:
[1] = system: K. pneumoniae 81 KPC-3(+); experiment: MIC of tested agent alone, microdilution; format: cell-based; conditions: Klebsiella pneumoniae; read-out: MIC of agent alone
How it was run: (§1)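 MICs of the agents alone were determined by broth microdilution. In checkerboard plates, β-lactams (1–64 mg/L) were combined with the agents or PBA at 4–16 mg/L, and antibiotic MICs were read at each agent concentration. FICI was calculated at the growth/no-growth interface.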

[2] = system: K. pneumoniae ATCC BAA-1705 KPC-2(+); experiment: MIC of tested agent alone, microdilution; format: cell-based; conditions: Klebsiella pneumoniae, ATCCBAA1705; read-out: MIC of agent alone
How it was run: as §1

[3] = system: K. pneumoniae 83 KPC-3(+), CTX-M-3(+); experiment: MIC of tested agent alone, microdilution; format: cell-based; conditions: Klebsiella pneumoniae; read-out: MIC of agent alone
How it was run: as §1

[4] = system: P. aeruginosa MUW 700 AmpC(+); experiment: MIC of tested agent alone, microdilution; format: cell-based; conditions: Pseudomonas aeruginosa; read-out: MIC of agent alone
How it was run: as §1

E. coli 76 KPC-2(+) = experiment: MIC of tested agent alone, microdilution; format: cell-based; conditions: Escherichia coli; read-out: MIC of agent alone
How it was run: as §1

E. coli 77 CMY-2(+) = experiment: MIC of tested agent alone, microdilution; format: cell-based; conditions: Escherichia coli; read-out: MIC of agent alone
How it was run: as §1

[5] = system: C. guilliermondii IBA 155; experiment: antifungal activity (disc-diffusion, MIC, MFC); format: cell-based, Candida guilliermondii; conditions: Meyerozyma guilliermondii, IBA155; for zone of inhibition at 0.4 mg/disc: 0.4 mg per disc, 9 mm disc (fluconazole 0.025 mg, 6 mm disc), - no zone, read-out: Diameter of inhibition zone; for MIC: fluconazole by Etest
How it was run: (§2)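 EUCAST/CLSI methods: disc diffusion at 0.4 mg compound/disc, broth MIC, then MBC (bacteria) or MFC (yeast). DMSO vehicle.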

B. subtilis ATCC 6633 = experiment: direct antimicrobial activity (disc-diffusion); format: cell-based; conditions: Bacillus subtilis, ATCC6633; 0.4 mg per disc, 9 mm disc (linezolid 0.03 mg, 6 mm disc); - no zone; read-out: Diameter of inhibition zone
How it was run: as §2

E. faecalis ATCC 29212 = experiment: direct antimicrobial activity (disc-diffusion, MIC, MBC); format: cell-based; conditions: Enterococcus faecalis, ATCC29212; for zone of inhibition at 0.4 mg/disc: 0.4 mg per disc, 9 mm disc (linezolid 0.03 mg, 6 mm disc), - no zone, read-out: Diameter of inhibition zone
How it was run: as §2

[6] = system: S. epidermidis ATCC 12228; experiment: as above; format: cell-based; conditions: Staphylococcus epidermidis, ATCC12228; for zone of inhibition at 0.4 mg/disc: 0.4 mg per disc, 9 mm disc (linezolid 0.03 mg, 6 mm disc), - no zone, read-out: Diameter of inhibition zone
How it was run: as §2

[7] = system: S. aureus ATCC 43300 MRSA; experiment: as above; format: cell-based; conditions: Staphylococcus aureus; for zone of inhibition at 0.4 mg/disc: 0.4 mg per disc, 9 mm disc (linezolid 0.03 mg, 6 mm disc), - no zone, read-out: Diameter of inhibition zone
How it was run: as §2

E. faecium ATCC 6057 = experiment: as above; format: cell-based; conditions: Enterococcus faecium, ATCC6057; for zone of inhibition at 0.4 mg/disc: 0.4 mg per disc, 9 mm disc (linezolid 0.03 mg, 6 mm disc), - no zone, read-out: Diameter of inhibition zone
How it was run: as §2

S. aureus ATCC 6538P = experiment: as above; format: cell-based; conditions: Staphylococcus aureus, ATCC6538P; for zone of inhibition at 0.4 mg/disc: 0.4 mg per disc, 9 mm disc (linezolid 0.03 mg, 6 mm disc), - no zone, read-out: Diameter of inhibition zone
How it was run: as §2

C. tropicalis IBA 171 = experiment: antifungal activity (disc-diffusion, MIC, MFC); format: cell-based; conditions: Candida tropicalis, IBA171; for MIC: fluconazole by Etest
How it was run: as §2

S. cerevisiae ATCC 9763 = experiment: antifungal activity (disc-diffusion, MIC, MFC); format: cell-based; conditions: Saccharomyces cerevisiae, ATCC9763; for MIC: fluconazole by Etest; for zone of inhibition at 0.4 mg/disc: 0.4 mg per disc, 9 mm disc (fluconazole 0.025 mg, 6 mm disc), - no zone, read-out: Diameter of inhibition zone
How it was run: as §2

C. tropicalis ATCC 750 = experiment: antifungal activity (disc-diffusion, MIC, MFC); format: cell-based; conditions: Candida tropicalis, ATCC750; for MIC: fluconazole by Etest; for zone of inhibition at 0.4 mg/disc: 0.4 mg per disc, 9 mm disc (fluconazole 0.025 mg, 6 mm disc), - no zone, read-out: Diameter of inhibition zone
How it was run: as §2

C. albicans ATCC 90028 = experiment: antifungal activity (disc-diffusion, MIC, MFC); format: cell-based; conditions: Candida albicans, ATCC90028; for MIC: fluconazole by Etest
How it was run: as §2

[8] = system: P. aeruginosa MUW 700 cAmpC-positive; experiment: combination disc test CDT-AmpC; format: cell-based; conditions: Pseudomonas aeruginosa; agent 0.3 mg per disc; read-out: Diameter of inhibition zone, CAZ-30 disc with agent
[9] = system: K. pneumoniae ATCC BAA 1705 KPC-2-positive; experiment: combination disc test CDT-KPC; format: cell-based; conditions: Klebsiella pneumoniae, BAA1705; agent 0.3 mg per disc; read-out: Diameter of inhibition zone, MEM-10 disc with agent

Row | SMILES | MIC [1] | MIC [2] | MIC [3] | MIC [4] | MIC (E. coli 76 KPC-2(+)) | MIC (E. coli 77 CMY-2(+)) | MIC [5] | zone of inhibition at 0.4 mg/disc (B. subtilis ATCC 6633) | MIC (E. faecalis ATCC 29212) | MIC [6] | zone of inhibition at 0.4 mg/disc [6] | MIC [7] | zone of inhibition at 0.4 mg/disc [7] | MIC (E. faecium ATCC 6057) | zone of inhibition at 0.4 mg/disc (E. faecium ATCC 6057) | MIC (S. aureus ATCC 6538P) | zone of inhibition at 0.4 mg/disc (S. aureus ATCC 6538P) | MIC (C. tropicalis IBA 171) | MIC (S. cerevisiae ATCC 9763) | MIC (C. tropicalis ATCC 750) | also measured
1 | OB(O)c1cc(C(F)(F)F)cc(B(O)O)c1F [2e] | > 400 µg/mL | > 400 µg/mL | > 400 µg/mL | > 400 µg/mL | > 400 µg/mL | > 400 µg/mL | > 400 µg/mL | 20 mm | 50 µg/mL (≈ 199 µM) | 0.78 µg/mL (≈ 3.1 µM) | 35 mm | 12.5 µg/mL (≈ 49.7 µM) | 25 mm | 100 µg/mL (≈ 397 µM) | 18 mm | 6.25 µg/mL (≈ 24.8 µM) | 29 mm | 400 µg/mL (≈ 1590 µM) | > 400 µg/mL | > 400 µg/mL | zone of inhibition at 0.4 mg/disc [5]: 14 mm; zone of inhibition at 0.4 mg/disc (E. faecalis ATCC 29212): 21 mm; MIC (C. albicans ATCC 90028): 400 µg/mL (≈ 1590 µM); zone of inhibition at 300 µg/disc [8]: 16 mm; zone of inhibition at 300 µg/disc [9]: 6 mm
2 | OB(O)c1ccc(F)cc1B(O)O [3c] | > 400 µg/mL | > 400 µg/mL | > 400 µg/mL | > 400 µg/mL | > 400 µg/mL | > 400 µg/mL | > 400 µg/mL | 18 mm | 400 µg/mL (≈ 2180 µM) | 100 µg/mL (≈ 544 µM) | 24 mm | 400 µg/mL (≈ 2180 µM) | 11 mm | 400 µg/mL (≈ 2180 µM) | 12 mm | 200 µg/mL (≈ 1090 µM) | 13 mm | 50 µg/mL (≈ 272 µM) | 100 µg/mL (≈ 544 µM) | 50 µg/mL (≈ 272 µM) | MIC (C. albicans ATCC 90028): 100 µg/mL (≈ 544 µM); zone of inhibition at 300 µg/disc [8]: 20 mm; zone of inhibition at 300 µg/disc [9]: 12 mm
3 | OB(O)c1ccc(C(F)(F)F)cc1B(O)O [3e] | > 400 µg/mL | > 400 µg/mL | > 400 µg/mL | > 400 µg/mL | > 400 µg/mL | > 400 µg/mL | 3.12 µg/mL (≈ 13.3 µM) | 22 mm | 200 µg/mL (≈ 856 µM) | 200 µg/mL (≈ 856 µM) | 21 mm | 400 µg/mL (≈ 1710 µM) | 15 mm | 200 µg/mL (≈ 856 µM) | 13 mm | 100 µg/mL (≈ 428 µM) | 17 mm | 6.25 µg/mL (≈ 26.7 µM) | 50 µg/mL (≈ 214 µM) | 12.5 µg/mL (≈ 53.5 µM) | MFC [5]: 400 µg/mL (≈ 1710 µM); zone of inhibition at 0.4 mg/disc [5]: 40 mm; zone of inhibition at 0.4 mg/disc (E. faecalis ATCC 29212): 14 mm; MFC (C. tropicalis IBA 171): 400 µg/mL (≈ 1710 µM); zone of inhibition at 0.4 mg/disc (S. cerevisiae ATCC 9763): 23 mm; zone of inhibition at 0.4 mg/disc (C. tropicalis ATCC 750): 28 mm; MFC (C. albicans ATCC 90028): 400 µg/mL (≈ 1710 µM); MIC (C. albicans ATCC 90028): 6.25 µg/mL (≈ 26.7 µM); zone of inhibition at 300 µg/disc [8]: 17 mm; zone of inhibition at 300 µg/disc [9]: 6 mm
4 | OB(O)c1ccccc1S [7c, 2-mercaptophenylboronic acid] | > 200 µg/mL | > 200 µg/mL | > 200 µg/mL | > 200 µg/mL | > 200 µg/mL | > 200 µg/mL | 25 µg/mL (≈ 162 µM) | 26 mm | 25 µg/mL (≈ 162 µM) | 12.5 µg/mL (≈ 81.2 µM) | 30 mm | 25 µg/mL (≈ 162 µM) | 22 mm | 12.5 µg/mL (≈ 81.2 µM) | 25 mm | 12.5 µg/mL (≈ 81.2 µM) | 23 mm | 12.5 µg/mL (≈ 81.2 µM) | 12.5 µg/mL (≈ 81.2 µM) | 50 µg/mL (≈ 325 µM) | MFC [5]: 200 µg/mL (≈ 1300 µM); zone of inhibition at 0.4 mg/disc [5]: 40 mm; zone of inhibition at 0.4 mg/disc (E. faecalis ATCC 29212): 23 mm; MFC (C. tropicalis IBA 171): 100 µg/mL (≈ 649 µM); MFC (S. cerevisiae ATCC 9763): 25 µg/mL (≈ 162 µM); zone of inhibition at 0.4 mg/disc (S. cerevisiae ATCC 9763): 34 mm; MFC (C. tropicalis ATCC 750): 200 µg/mL (≈ 1300 µM); zone of inhibition at 0.4 mg/disc (C. tropicalis ATCC 750): 20 mm; MFC (C. albicans ATCC 90028): 200 µg/mL (≈ 1300 µM); zone of inhibition at 0.4 mg/disc (C. albicans ATCC 90028; 0.4 mg per disc, 9 mm disc (fluconazole 0.025 mg, 6 mm disc), - no zone, read-out: Diameter of inhibition zone): 33 mm; MIC (C. albicans ATCC 90028): 50 µg/mL (≈ 325 µM); zone of inhibition at 300 µg/disc [8]: 11 mm; zone of inhibition at 300 µg/disc [9]: 13 mm
